Measured values: ChEMBL document CHEMBL4038285, “Synthesis, molecular docking, antimycobacterial and antimicrobial evaluation of new pyrrolo[3,2-c]pyridine Mannich bases” (Eur J Med Chem, 2017)
In brackets after ≈: the same amount, converted by molar mass. Activity calls are given as the source filed them. The calls are words filed in the database; no cut-off is given here.

Assays:
[1] = test system: Escherichia coli; experiment: Antibacterial activity against Escherichia coli NCIM 2931 assessed as diameter of inhibition zone measured after 20 hrs by agar well diffusion method; assay type: functional
[2] = test system: Streptococcus mutans; experiment: Antibacterial activity against Streptococcus mutans MTCC 890 assessed as diameter of inhibition zone measured after 20 hrs by agar well diffusion method; assay type: functional
[3] = test system: Scopulariopsis sp; experiment: Antifungal activity against Scopulariopsis sp. MTCC 3553 assessed as diameter of inhibition zone after 4 days by agar well diffusion method; assay type: functional
[4] = test system: Klebsiella pneumoniae; experiment: Antibacterial activity against Klebsiella pneumoniae PTCC 1053 assessed as diameter of inhibition zone measured after 20 hrs by agar well diffusion method; assay type: functional
[5] = test system: Pseudomonas aeruginosa; experiment: Antibacterial activity against Pseudomonas aeruginosa MTCC 4727 assessed as diameter of inhibition zone measured after 20 hrs by agar well diffusion method; assay type: functional
[6] = test system: Pseudomonas sp.; experiment: Antibacterial activity against Pseudomonas sp. NCIM 2872 assessed as diameter of inhibition zone measured after 20 hrs by agar well diffusion method; assay type: functional
[7] = test system: Aspergillus terreus; experiment: Antifungal activity against Aspergillus terreus MTCC 1782 assessed as diameter of inhibition zone after 4 days by agar well diffusion method; assay type: functional
[8] = test system: Clostridium sporogenes; experiment: Antibacterial activity against Clostridium sporogenes NICM 2559 assessed as diameter of inhibition zone measured after 20 hrs by agar well diffusion method; assay type: functional
[9] = test system: Staphylococcus aureus; experiment: Antibacterial activity against Staphylococcus aureus NCIM 5345 assessed as diameter of inhibition zone measured after 20 hrs by agar well diffusion method; assay type: functional
[10] = test system: Bacillus flexus; experiment: Antibacterial activity against Bacillus flexus MTCC 2909 assessed as diameter of inhibition zone measured after 20 hrs by agar well diffusion method; assay type: functional
[11] = Selectivity index, ratio of IC50 for human HEK293T cells to MIC for Mycobacterium tuberculosis H37Rv ATCC 27294; assay type: toxicity; settings: read-out: Selectivity Index
[12] = test system: Staphylococcus aureus; experiment: Antibacterial activity against Staphylococcus aureus NCIM 5345 after 24 hrs by broth microdilution method; assay type: functional; settings: NCIM 5345, 24 h
[13] = test system: Mycobacterium tuberculosis; experiment: Antimycobacterial activity against Mycobacterium tuberculosis H37Rv ATCC 27294 after 7 days by microplate alamar blue assay; assay type: functional; settings: H37Rv ATCC 27294, 168 h
[14] = test system: Streptococcus mutans; experiment: Antibacterial activity against Streptococcus mutans MTCC 890 after 24 hrs by broth microdilution method; assay type: functional; settings: MTCC 890, 24 h
[15] = test system: HEK-293T; experiment: Growth inhibition of human HEK293T cells after 72 hrs by MTT assay; assay type: cell-based
[16] = test system: Clostridium sporogenes; experiment: Antibacterial activity against Clostridium sporogenes NICM 2559 after 24 hrs by broth microdilution method; assay type: functional; settings: NICM 2559, 24 h
[17] = test system: Bacillus flexus; experiment: Antibacterial activity against Bacillus flexus MTCC 2909 after 24 hrs by broth microdilution method; assay type: functional; settings: Priestia flexa, MTCC 2909, 24 h
[18] = Growth inhibition of human HEK293T cells at 50 ug/ml after 72 hrs by MTT assay relative to control; assay type: cell-based, HEK-293T; settings: read-out: GI

Molecule | diameter of the inhibition zone (DIZ) [1] | diameter of the inhibition zone (DIZ) [2] | diameter of the inhibition zone (DIZ) [4] | diameter of the inhibition zone (DIZ) [5] | diameter of the inhibition zone (DIZ) [6] | diameter of the inhibition zone (DIZ) [8] | diameter of the inhibition zone (DIZ) [9] | MIC [12] [µg/mL] | MIC [13] [µg/mL] | diameter of the inhibition zone (DIZ) [3] | MIC [14] [µg/mL] | MIC [16] [µg/mL] | MIC [17] [µg/mL] | diameter of the inhibition zone (DIZ) [7] | diameter of the inhibition zone (DIZ) [10] [mm] | other results
NYSTATIN | inactive | inactive | inactive | inactive | inactive | inactive | inactive | – | – | – | – | – | – | – | – | inhibition zone (IZ) [3]: 32 mm; inhibition zone (IZ) [7]: 32 mm; diameter of the inhibition zone (DIZ) ([10]; Priestia flexa): inactive
Clc1nccc2[nH]c(CC3CCCCC3)c(CN3CCOCC3)c12 | inactive | 20 mm | inactive | inactive | inactive | 20 mm | 20 mm | 35 (≈ 101 µM) | 25 (≈ 71.9 µM) | inactive | 30 (≈ 86.2 µM) | 40 (≈ 115 µM) | 40 (≈ 115 µM) | inactive | 20 | selectivity ratio [11]: 1 to 2; IC50 [15]: > 50 µg/mL; inhibition at 72 h, 50 ug/ml [18]: 21.2%
NNC(=O)c1ccncc1 [ISONIAZID] | – | – | – | – | – | – | – | – | 0.36 (≈ 2.63 µM) | – | – | – | – | – | – | –
CN[C@@H]1[C@H](O[C@H]2[C@H](O[C@H]3[C@H](O)[C@@H](O)[C@H](N=C(N)N)[C@@H](O)[C@@H]3N=C(N)N)O[C@@H](C)[C@]2(O)C=O)O[C@@H](CO)[C@H](O)[C@H]1O [STREPTOMYCIN] | 32 mm | 32 mm | 32 mm | 32 mm | 32 mm | 32 mm | 32 mm | 2 (≈ 3.44 µM) | – | inactive | 0.5 (≈ 0.86 µM) | 1 (≈ 1.72 µM) | 1.5 (≈ 2.58 µM) | inactive | 32 | –
OCCN1CCN(Cc2c(-c3ccccc3)[nH]c3ccnc(Cl)c23)CC1 | inactive | 10 mm | inactive | inactive | inactive | 10 mm | 10 mm | > 50 | > 25 | inactive | > 50 | > 50 | > 50 | inactive | 10 | –
Clc1nccc2[nH]c(-c3ccccc3)c(CN3CCOCC3)c12 | inactive | 10 mm | inactive | inactive | inactive | 10 mm | 10 mm | > 50 | > 25 | inactive | > 50 | > 50 | > 50 | inactive | 10 | –
CO[C@H]1/C=C/O[C@@]2(C)Oc3c(C)c(O)c4c(O)c(c(/C=N/N5CCN(C)CC5)c(O)c4c3C2=O)NC(=O)/C(C)=C\C=C\[C@H](C)[C@H](O)[C@@H](C)[C@@H](O)[C@@H](C)[C@H](OC(C)=O)[C@@H]1C [RIFAMPIN] | – | – | – | – | – | – | – | – | 0.02 (≈ 0.0243 µM) | – | – | – | – | – | – | –
CN(CCc1ccccc1)Cc1c(CC2CCCCC2)[nH]c2ccnc(Cl)c12 | inactive | 32 mm | inactive | inactive | inactive | 32 mm | 32 mm | 10 (≈ 25.3 µM) | 6.25 (≈ 15.8 µM) | inactive | 10 (≈ 25.3 µM) | 9 (≈ 22.7 µM) | 8 (≈ 20.2 µM) | inactive | 32 | selectivity ratio [11]: > 16; IC50 [15]: > 50 µg/mL; inhibition at 72 h, 50 ug/ml [18]: 19.1%
CC[C@@H](CO)NCCN[C@@H](CC)CO [ETHAMBUTOL] | – | – | – | – | – | – | – | – | 3.12 (≈ 15.3 µM) | – | – | – | – | – | – | –
